In patent US8809350B2, “Purine and pyrimidine CDK inhibitors and their use for the treatment of autoimmune diseases” (priority 2004, dated 2014):
pIC50: −log10 of the molar value. Like-named read-outs stand apart in the source and are kept apart here.

How the values were obtained:
[1] = Food intake of NZB/W F1 lupus mice; format: in vivo; conditions: Example 1; for Food Intake: mean ± SE
[2] = Water intake of NZB/W F1 lupus mice; format: in vivo; set-up: Water intake: unit not given beside the values; conditions: Example 1; for Water intake: mean ± SE
[3] = Body weight of NZB/W F1 lupus mice; conditions: Example 1; for Body Weight: mean ± SE
[4] = tested on: anti-dsDNA autoantibodies; assay: Serum anti-DNA antibodies in NZB/W F1 lupus mice; conditions: Example 1; for Serum anti-DNA antibodies: mean ± SE
[5] = Serum transaminase (AST, ALT) in NZB/W F1 lupus mice; conditions: Example 1; for Serum Transaminase ALT / Serum Transaminase AST: mean ± SE
[6] = biological target: T1, AurA (Homo sapiens, UniProt O14965); assay: In-house kinase assay (32P incorporation); format: biochemical; conditions: in-house kinase assays
T1 sequence (O14965 1-403): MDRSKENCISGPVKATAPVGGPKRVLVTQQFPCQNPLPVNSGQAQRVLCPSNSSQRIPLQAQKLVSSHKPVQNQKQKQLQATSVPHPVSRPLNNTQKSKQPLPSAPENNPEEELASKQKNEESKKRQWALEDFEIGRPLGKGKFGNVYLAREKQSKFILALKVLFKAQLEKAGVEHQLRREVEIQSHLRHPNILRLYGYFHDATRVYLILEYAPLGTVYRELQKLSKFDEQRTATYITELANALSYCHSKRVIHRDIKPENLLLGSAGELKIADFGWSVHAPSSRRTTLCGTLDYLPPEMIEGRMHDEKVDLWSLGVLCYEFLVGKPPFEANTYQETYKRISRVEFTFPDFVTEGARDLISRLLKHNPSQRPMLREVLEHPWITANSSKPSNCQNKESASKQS
Experimental: (§1) Kinase activity was investigated by measuring the incorporation of radioactive phosphate from ATP into appropriate polypeptide substrates. Recombinant protein kinases and kinase complexes were produced or obtained commercially. Assays were performed using 96-well plates and appropriate assay buffers (typically 25 mM β-glycerophosphate, 20 mM MOPS, 5 mM EGTA, 1 mM DTT, 1 mM […], pH 7.4), into which were added 2-4 μg of active enzyme with appropriate substrates. The reactions were initiated by addition of Mg/ATP mix (15 mM MgCl2+100 μM ATP with 30-50 kBq per well of [γ-^32P]-ATP) and mixtures incubated as required at 30° C. Reactions were stopped on ice, followed by filtration through p81 filterplates or GF/C filterplates (Whatman Polyfiltronics, Kent, UK). After washing 3 times with 75 mM aq orthophosphoric acid, plates were dried, scintillant added and incorporated radioactivity measured in a scintillation counter (TopCount, Packard Instruments, Pangbourne, Berks, UK). Compounds for kinase assay were made up as 10 mM stocks in DMSO and diluted into 10% DMSO in assay buffer.

[7] = biological target: AurB (Homo sapiens, UniProt Q96GD4); assay: In-house kinase assay (32P incorporation); format: biochemical; conditions: in-house kinase assays
Sequence of AurB (Q96GD4 whole entry): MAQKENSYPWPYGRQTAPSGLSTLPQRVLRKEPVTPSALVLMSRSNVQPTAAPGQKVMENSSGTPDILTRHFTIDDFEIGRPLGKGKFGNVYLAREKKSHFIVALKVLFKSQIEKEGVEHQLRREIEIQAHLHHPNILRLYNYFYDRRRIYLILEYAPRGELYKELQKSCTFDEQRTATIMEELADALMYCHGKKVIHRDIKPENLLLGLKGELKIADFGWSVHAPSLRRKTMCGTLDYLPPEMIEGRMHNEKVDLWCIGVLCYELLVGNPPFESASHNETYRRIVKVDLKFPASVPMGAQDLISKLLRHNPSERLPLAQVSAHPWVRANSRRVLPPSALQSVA
Experimental: as §1

[8] = biological target: CDK1B (Homo sapiens, UniProt P06493); assay: In-house kinase assay (32P incorporation); format: biochemical; conditions: in-house kinase assays
Sequence of CDK1B (P06493 whole entry): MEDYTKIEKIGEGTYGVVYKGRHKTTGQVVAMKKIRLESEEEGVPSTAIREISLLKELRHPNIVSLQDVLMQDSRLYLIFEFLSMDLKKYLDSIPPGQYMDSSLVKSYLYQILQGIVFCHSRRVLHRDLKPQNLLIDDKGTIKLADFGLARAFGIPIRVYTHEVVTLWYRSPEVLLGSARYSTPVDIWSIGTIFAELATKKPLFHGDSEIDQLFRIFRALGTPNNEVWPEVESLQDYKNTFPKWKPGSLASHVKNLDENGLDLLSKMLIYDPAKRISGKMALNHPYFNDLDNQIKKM
Sequence of CDK1B (P14635 whole entry partner): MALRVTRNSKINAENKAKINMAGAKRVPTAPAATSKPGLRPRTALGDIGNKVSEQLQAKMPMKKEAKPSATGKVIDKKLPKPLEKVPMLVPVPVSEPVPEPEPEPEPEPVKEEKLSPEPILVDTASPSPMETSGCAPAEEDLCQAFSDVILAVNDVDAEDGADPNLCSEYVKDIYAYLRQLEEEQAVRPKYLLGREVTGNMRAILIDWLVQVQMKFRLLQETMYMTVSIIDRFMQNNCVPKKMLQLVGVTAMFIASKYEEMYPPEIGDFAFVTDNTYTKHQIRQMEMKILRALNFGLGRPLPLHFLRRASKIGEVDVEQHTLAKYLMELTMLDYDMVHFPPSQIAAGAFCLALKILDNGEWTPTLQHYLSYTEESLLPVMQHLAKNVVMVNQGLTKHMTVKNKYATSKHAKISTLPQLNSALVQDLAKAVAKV
Experimental: as §1

[9] = biological target: CDK2A (Homo sapiens, UniProt P24941); assay: In-house kinase assay (32P incorporation); format: biochemical; conditions: in-house kinase assays
Experimental: as §1

[10] = biological target: CDK2E (Homo sapiens, UniProt P24941); assay: In-house kinase assay (32P incorporation); format: biochemical; conditions: in-house kinase assays
Experimental: as §1

[11] = biological target: CDK4D1 (Homo sapiens, UniProt P11802); assay: In-house kinase assay (32P incorporation); format: biochemical; conditions: in-house kinase assays
Sequence of CDK4D1 (P11802 whole entry): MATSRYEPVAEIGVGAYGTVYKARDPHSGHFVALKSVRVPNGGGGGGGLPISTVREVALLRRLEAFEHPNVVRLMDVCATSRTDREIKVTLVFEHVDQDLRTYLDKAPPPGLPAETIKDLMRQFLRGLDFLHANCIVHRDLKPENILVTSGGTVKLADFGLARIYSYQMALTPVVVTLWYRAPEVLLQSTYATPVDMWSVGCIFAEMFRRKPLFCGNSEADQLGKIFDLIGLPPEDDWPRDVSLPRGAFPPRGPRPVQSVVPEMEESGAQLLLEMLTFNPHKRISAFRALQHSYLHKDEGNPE
Sequence of CDK4D1 (P24385 whole entry partner): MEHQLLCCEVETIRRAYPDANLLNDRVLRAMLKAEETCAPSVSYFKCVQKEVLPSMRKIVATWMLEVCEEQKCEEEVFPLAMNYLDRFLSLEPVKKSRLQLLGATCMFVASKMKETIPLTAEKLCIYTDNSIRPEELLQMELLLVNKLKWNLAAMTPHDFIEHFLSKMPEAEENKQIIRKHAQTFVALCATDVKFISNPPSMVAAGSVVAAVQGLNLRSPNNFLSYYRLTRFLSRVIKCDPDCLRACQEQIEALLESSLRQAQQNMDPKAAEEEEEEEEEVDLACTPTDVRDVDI
Experimental: as §1

[12] = biological target: CDK6D3 (Homo sapiens, UniProt Q00534); assay: In-house kinase assay (32P incorporation); format: biochemical; conditions: in-house kinase assays
Sequence of CDK6D3 (Q00534 whole entry): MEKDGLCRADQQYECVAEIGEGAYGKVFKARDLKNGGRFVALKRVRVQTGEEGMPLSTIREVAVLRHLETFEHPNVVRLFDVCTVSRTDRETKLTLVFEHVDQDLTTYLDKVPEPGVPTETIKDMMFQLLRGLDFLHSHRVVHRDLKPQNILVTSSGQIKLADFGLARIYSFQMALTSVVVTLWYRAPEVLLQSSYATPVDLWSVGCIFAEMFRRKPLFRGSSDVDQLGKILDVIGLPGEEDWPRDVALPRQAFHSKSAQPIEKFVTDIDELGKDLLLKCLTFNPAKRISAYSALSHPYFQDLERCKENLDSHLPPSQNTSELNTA
Sequence of CDK6D3 (P30281 whole entry partner): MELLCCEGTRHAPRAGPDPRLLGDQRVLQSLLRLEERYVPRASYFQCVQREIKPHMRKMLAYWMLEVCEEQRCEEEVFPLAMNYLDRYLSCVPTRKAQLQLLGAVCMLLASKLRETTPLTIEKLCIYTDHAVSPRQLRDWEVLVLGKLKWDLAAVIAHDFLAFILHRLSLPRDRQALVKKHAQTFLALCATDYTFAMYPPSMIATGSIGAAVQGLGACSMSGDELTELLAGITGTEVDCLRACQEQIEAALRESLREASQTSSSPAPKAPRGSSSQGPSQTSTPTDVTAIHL
Experimental: as §1

[13] = biological target: CDK7/cyclin H (Homo sapiens, UniProt P50613); assay: CDK 7 and 9 assay (CTD peptide substrate); format: biochemical; conditions: in-house kinase assays; read-out: Average IC50 CDK7H
Sequence of CDK7/cyclin H (P50613 whole entry): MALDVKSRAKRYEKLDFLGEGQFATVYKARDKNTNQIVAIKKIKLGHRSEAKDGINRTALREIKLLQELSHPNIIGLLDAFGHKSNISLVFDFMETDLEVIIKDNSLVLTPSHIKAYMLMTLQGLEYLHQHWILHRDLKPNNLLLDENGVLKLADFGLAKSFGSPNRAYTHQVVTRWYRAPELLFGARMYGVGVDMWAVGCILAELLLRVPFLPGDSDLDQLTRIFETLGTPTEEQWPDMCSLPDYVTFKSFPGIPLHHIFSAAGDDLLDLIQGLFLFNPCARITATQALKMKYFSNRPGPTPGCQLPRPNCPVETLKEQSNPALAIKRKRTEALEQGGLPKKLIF
Sequence of CDK7/cyclin H (P51946 whole entry partner): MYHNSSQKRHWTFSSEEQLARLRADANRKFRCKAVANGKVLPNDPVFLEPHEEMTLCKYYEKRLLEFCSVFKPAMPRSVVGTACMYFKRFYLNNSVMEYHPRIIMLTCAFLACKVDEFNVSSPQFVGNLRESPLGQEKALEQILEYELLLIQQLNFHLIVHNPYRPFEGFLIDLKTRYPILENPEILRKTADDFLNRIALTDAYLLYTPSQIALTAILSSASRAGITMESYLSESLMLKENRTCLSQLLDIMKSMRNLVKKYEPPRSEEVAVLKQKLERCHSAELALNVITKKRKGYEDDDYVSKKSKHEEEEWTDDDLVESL
Experimental: as §1
(§2) The reaction was stopped by placing the plate on ice for 2 min. Avidin (50 μg) was added to each well, and the plate was incubated at room temp for 30 min. The samples were transferred to a 96-well P81 filter plate, and washed (4×200 μL per well) with 75 mM phosphoric acid. Microscint 40 scintillation liquid (50 μL) was added to each well, and the amount of ^32P incorporation for each sample was measured using a Packard Topcount microplate scintillation counter.

[14] = biological target: CDK9/cyclin T1 (Homo sapiens, UniProt P50750); assay: CDK 7 and 9 assay (CTD peptide substrate); format: biochemical; conditions: in-house kinase assays; read-out: Average IC50 CDK9T1
Sequence of CDK9/cyclin T1 (P50750 whole entry): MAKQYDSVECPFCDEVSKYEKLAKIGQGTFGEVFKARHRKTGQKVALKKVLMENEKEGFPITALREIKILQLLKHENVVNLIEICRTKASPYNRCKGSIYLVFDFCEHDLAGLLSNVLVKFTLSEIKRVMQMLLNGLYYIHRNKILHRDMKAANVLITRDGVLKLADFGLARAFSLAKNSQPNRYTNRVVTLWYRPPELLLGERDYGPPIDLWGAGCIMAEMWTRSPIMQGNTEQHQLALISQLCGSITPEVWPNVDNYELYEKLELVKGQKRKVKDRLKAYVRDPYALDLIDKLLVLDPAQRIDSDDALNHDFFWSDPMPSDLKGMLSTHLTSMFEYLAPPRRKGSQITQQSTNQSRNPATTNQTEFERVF
Sequence of CDK9/cyclin T1 (O60563 whole entry partner): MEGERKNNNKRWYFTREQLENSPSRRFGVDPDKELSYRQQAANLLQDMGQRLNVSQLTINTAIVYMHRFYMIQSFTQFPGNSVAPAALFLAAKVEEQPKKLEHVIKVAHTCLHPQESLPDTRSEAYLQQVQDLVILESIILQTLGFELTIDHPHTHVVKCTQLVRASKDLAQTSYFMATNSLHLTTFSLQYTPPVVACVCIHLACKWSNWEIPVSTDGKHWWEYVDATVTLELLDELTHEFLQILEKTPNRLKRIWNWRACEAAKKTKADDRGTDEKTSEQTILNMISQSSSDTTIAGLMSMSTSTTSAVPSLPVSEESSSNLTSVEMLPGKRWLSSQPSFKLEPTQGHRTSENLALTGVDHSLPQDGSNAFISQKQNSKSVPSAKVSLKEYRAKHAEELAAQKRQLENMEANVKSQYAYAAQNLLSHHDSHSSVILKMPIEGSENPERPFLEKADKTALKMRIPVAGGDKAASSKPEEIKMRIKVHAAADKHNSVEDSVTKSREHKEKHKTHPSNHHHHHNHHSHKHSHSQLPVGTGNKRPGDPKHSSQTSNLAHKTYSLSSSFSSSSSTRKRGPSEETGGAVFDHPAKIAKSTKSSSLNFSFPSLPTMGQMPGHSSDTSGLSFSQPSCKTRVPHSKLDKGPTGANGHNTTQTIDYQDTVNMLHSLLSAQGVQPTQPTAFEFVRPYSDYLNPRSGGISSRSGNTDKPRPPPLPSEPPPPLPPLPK
Experimental: as §1, §2

[15] = tested on: tumour cell panels; assay: In-house 72 hour cytotoxicity assays on tumour cell panels; format: cell-based
[16] = 100 mg/kg daily by gavage from 2 months (preventive), age 2 months
[17] = 100 mg/kg daily by gavage from 2 months (preventive), age 2.5 months
[18] = 100 mg/kg daily by gavage from 2 months (preventive), age 3 months
[19] = 100 mg/kg daily by gavage from 2 months (preventive), age 3.5 months
[20] = 100 mg/kg daily by gavage from 2 months (preventive), age 4 months
[21] = 100 mg/kg daily by gavage from 2 months (preventive), age 4.5 months
[22] = 100 mg/kg daily by gavage from 2 months (preventive), age 5 months
[23] = 200 mg/kg daily by gavage from 2 months (preventive), age 2 months
[24] = 200 mg/kg daily by gavage from 2 months (preventive), age 2.5 months
[25] = 200 mg/kg daily by gavage from 2 months (preventive), age 3 months
[26] = 200 mg/kg daily by gavage from 2 months (preventive), age 3.5 months
[27] = 200 mg/kg daily by gavage from 2 months (preventive), age 5 months
[28] = every two weeks from 2 to 5 months
[29] = 100 mg/kg therapeutic (from 5 months)
[30] = rounded IC50 value used for ease of calculation in PBMC assays, read-out: IC50 Used

CC[C@H](CO)Nc1nc(NCc2ccccc2)c2ncn(C(C)C)c2n1 [CYC202, 2-(1-R-hydroxymethylpropylamino)-6-benzylamino-9-isopropylpurine]
Food Intake [1, 16]: 3.69 ± 0.33 | Food Intake [1, 17]: 3.77 ± 0.23 | Food Intake [1, 18]: 3.92 ± 0.18 | Food Intake [1, 19]: 4.08 ± 0.18 | Food Intake [1, 20]: 3.92 ± 0.26 | Food Intake [1, 21]: 3.85 ± 0.30 | Food Intake [1, 22]: 3.85 ± 0.22 | Food Intake [1, 23]: 3.54 ± 0.29 | Food Intake [1, 24]: 4.08 ± 0.08 | Food Intake [1, 25]: 4.00 ± 0.11 | Food Intake [1, 26]: 4.08 ± 0.21 | Food Intake ([1]; 200 mg/kg daily by gavage from 2 months (preventive), age 4 months): 4.00 ± 0.16 | Food Intake ([1]; 200 mg/kg daily by gavage from 2 months (preventive), age 4.5 months): 4.00 ± 0.18 | Food Intake [1, 27]: 3.92 ± 0.29 | Food intake versus vehicle [1, 28]: comparable | Water intake [2, 16]: 6.64 ± 0.29 | Water intake [2, 17]: 5.14 ± 0.40 | Water intake [2, 18]: 4.21 ± 0.28 | Water intake [2, 19]: 5.00 ± 0.28 | Water intake [2, 20]: 5.57 ± 0.20 | Water intake [2, 21]: 4.43 ± 0.20 | Water intake [2, 22]: 3.93 ± 0.22 | Water intake [2, 23]: 5.31 ± 0.26 | Water intake [2, 24]: 4.77 ± 0.20 | Water intake [2, 25]: 4.92 ± 0.18 | Water intake [2, 26]: 5.08 ± 0.21 | Water intake [2, 27]: 4.23 ± 0.28 | Water intake versus vehicle [2, 28]: comparable | Body Weight [3, 16]: 27.93 ± 0.62 | Body Weight [3, 18]: 27.86 ± 0.52 | Body Weight [3, 20]: 28.07 ± 0.57 | Body Weight [3, 22]: 28.64 ± 0.57 | Body Weight ([3]; 100 mg/kg daily by gavage from 2 months (preventive), age 6 months): 30.23 ± 0.67 | Body Weight ([3]; 100 mg/kg daily by gavage from 2 months (preventive), age 7 months): 31.50 ± 0.87 | Body Weight ([3]; 100 mg/kg daily by gavage from 2 months (preventive), age 8 months): 30.78 ± 0.91 | Body Weight ([3]; 100 mg/kg daily by gavage from 5 months (therapeutic), age 2 months): 26.71 ± 0.74 | Body Weight ([3]; 100 mg/kg daily by gavage from 5 months (therapeutic), age 3 months): 28.14 ± 0.69 | Body Weight ([3]; 100 mg/kg daily by gavage from 5 months (therapeutic), age 4 months): 29.43 ± 1.01 | Body Weight ([3]; 100 mg/kg daily by gavage from 5 months (therapeutic), age 5 months): 29.71 ± 0.82 | Body Weight ([3]; 100 mg/kg daily by gavage from 5 months (therapeutic), age 6 months): 31.45 ± 0.96 | Body Weight ([3]; 100 mg/kg daily by gavage from 5 months (therapeutic), age 7 months): 30.80 ± 1.69 | Body Weight ([3]; 100 mg/kg daily by gavage from 5 months (therapeutic), age 8 months): 29.80 ± 1.46 | Body Weight [3, 23]: 27.85 ± 0.72 | Body Weight [3, 25]: 28.00 ± 0.68 | Body Weight [3, 27]: 28.92 ± 0.35 | Body Weight ([3]; 200 mg/kg daily by gavage from 2 months (preventive), age 6 months): 31.58 ± 0.43 | Body Weight ([3]; 200 mg/kg daily by gavage from 2 months (preventive), age 7 months): 30.82 ± 0.35 | Body Weight ([3]; 200 mg/kg daily by gavage from 2 months (preventive), age 8 months): 31.60 ± 0.52 | Body weight versus other experimental groups ([3]; all CYC202 groups): No difference | Serum anti-DNA antibodies ([4]; 100 mg/kg preventive, 5 months): 4.04 ± 0.76 U/ml | Serum anti-DNA antibodies ([4]; 100 mg/kg preventive, 8 months): 76.55 ± 21.40 U/ml | Serum anti-DNA antibodies ([4]; 200 mg/kg preventive, 5 months): 24.20 ± 6.52 U/ml | Serum anti-DNA antibodies ([4]; 200 mg/kg preventive, 8 months): 73.39 ± 21.13 U/ml | Anti-DNA antibody levels versus vehicle ([4]; treated from 2 months, both doses, at 5 or 8 months of age): significantly lower than vehicle | Serum Transaminase ALT [5, 29]: 36.00 ± 2.45 IU/L | Serum Transaminase AST [5, 29]: 74.40 ± 1.72 IU/L | Serum transaminase levels (ALT and AST) ([5]; 200 mg/kg from 2 months or 100 mg/kg from 5 months, similar to control mice): not modified by treatments | Serum Transaminase ALT ([5]; 200 mg/kg preventive): 36.44 ± 4.04 IU/L | Serum Transaminase AST ([5]; 200 mg/kg preventive): 62.89 ± 4.70 IU/L

CC[C@@H](Nc1nc(NCc2cccnc2)c2ncn(C(C)C)c2n1)C(C)(C)O [Compound 5]
pIC50 [6]: 7.29 | pIC50 [7]: 7.64 | pIC50 [8]: 4.80 | pIC50 [9]: 5.91 | pIC50 [10]: 6.03 | pIC50 [11]: 5.56 | pIC50 [12]: 5.71 | pIC50 [13]: 4.57 | pIC50 [14]: 5.57 | pIC50 ([15]; 72 h, read-out: IC50 Average): 5.84 | pIC50 [15, 30]: 5.82

CC[C@H](Nc1nc(NCc2cccnc2)c2ncn(C(C)C)c2n1)C(C)(C)O [Compound 6]
pIC50 [6]: < 5.00 | pIC50 [7]: < 5.00 | pIC50 [8]: 5.12 | pIC50 [10]: 6.90 | pIC50 [11]: 4.71 | pIC50 [12]: 5.04 | pIC50 [13]: 5.88 | pIC50 [14]: 6.47 | pIC50 ([15]; 72 h, read-out: IC50 Average): 4.98 | pIC50 [15, 30]: 5.00
